Test system: Yac-1 cell line
Experiment: Cytotoxicity of NK cells cultured in NK cell activation medium including antioxidants, co-culture with Yac-1 cells
Conditions: mouse spleen NK cells cultured 30-60 minutes in medium with 1 mM N-acetylcysteine or 0.5 mM TEMPOL; compared with normal NK cells (control) (FIG. 6)
Experimental: NK cell activation media were prepared as follows. In an NK cell culture medium obtained by mixing 10% FBS, 1× penicillin/streptomycin, 1× glutamax, 1× HEPES, 0.5 mM sodium pyruvate, 50 μM 2-mercaptoethanol, and 50 ng/ml interleukin-2 (IL-2) in RPMI1640 medium, 1 mM N-acetylcysteine or 0.5 mM 4-hydroxy-2,2,6,6-tetramethylpiperidine 1-oxyl (TEMPOL) was blended.
The Yac-1 cell line was added in RPMI1640 (10% FBS/RPMI1640) medium including 10% FBS, treated with 5 μg/ml Calcein AM (Invitrogen, C1430), and cultured for 1 hour in a cell culture machine at 37° C. in the presence of 5% carbon dioxide conditions to label with fluorescence. Afterwards, the NK cells and fluorescence-labeled Yac-1 cells were mixed in a ratio of 10:1, 5:1, and 1:1 and dispensed in a round bottom 96-well plate (SPL, #34096). Additionally, fluorescence-labeled Yac-1 cells were also dispensed into the wells of the maximum (Maximum, 10% FBS/RPMI1640 including 2% Triton X-100) and minimum (Minimum, 10% FBS/RPMI1640) to calculate the cytotoxicity rate. […] After culture for 4 hours, the medium was mixed well and centrifuged at 100×g for 5 minutes, the supernatant was transferred to a black plate (SPL, #30296), and fluorescence was measured using a fluorescence microplate reader. […]
Cytotoxicity=[(Test fluorescence−minimum fluorescence)/(maximum fluorescence−minimum fluorescence)]×100 [Equation 1] […]

CC1(C)CC(O)CC(C)(C)N1[O] [Tempol, 4-hydroxy-2,2,6,6-tetramethylpiperidine 1-oxyl]
cytotoxicity: higher cytotoxicity than normal NK cells
